Assays:
SARS2 M^pro M49I = assay type: cell-based, SARS-CoV-2
SARS2 M^pro P168S [1] = assay type: cell-based, SARS-CoV-2
SARS2 M^pro M49D = assay type: cell-based, SARS-CoV-2
SARS2 M^pro Q189N = assay type: cell-based, SARS-CoV-2
SARS2 M^pro Q189E = assay type: cell-based, SARS-CoV-2
SARS2 M^pro P168G [2] = assay type: cell-based, SARS-CoV-2
[3] = system: SARS2 H132 (Omicron) M^pro; assay type: cell-based, SARS-CoV-2
SARS2 M^pro P168G [4] = assay type: cell-based, SARS-CoV-2; remark: listed apart in the source
P168G SARS2 M^pro = P168G SARS2 M^pro (Severe acute respiratory syndrome coronavirus 2, UniProt P0DTD1, P3431G); assay type: biochemical, SARS-CoV-2
P168S SARS2 M^pro = P168S SARS2 M^pro (Severe acute respiratory syndrome coronavirus 2, UniProt P0DTD1, P3431S); assay type: biochemical, SARS-CoV-2
SARS2 M^pro P168S [5] = assay type: cell-based, SARS-CoV-2; remark: listed apart in the source

Molecule	effect of amino acid change on inhibition (SARS2 M^pro M49I)	effect of amino acid change on inhibition (SARS2 M^pro P168S [1])	decrease of inhibitor efficacy versus wild type (SARS2 M^pro M49D) [fold]	decrease of inhibitor efficacy versus wild type (SARS2 M^pro Q189N) [fold]	effect of amino acid change on inhibition (SARS2 M^pro Q189E)	effect of amino acid change on inhibition (SARS2 M^pro P168G [2])	sensitivity of Omicron (P132H) Mpro [3]	average increase in luciferase signal over wild type (SARS2 M^pro P168S [1]) [fold]	eGFP signal localization compared with wild-type construct (SARS2 M^pro P168G [4])	lower IC50 than wild-type Mpro (P168G SARS2 M^pro)	lower IC50 than wild-type Mpro (P168S SARS2 M^pro)	effect of amino acid change on inhibition (SARS2 M^pro M49D)	effect of amino acid change on inhibition (SARS2 M^pro Q189N)	eGFP signal localization compared with wild-type construct (SARS2 M^pro P168S [5])	average increase in luciferase signal over wild type (SARS2 M^pro P168G [2]) [fold]
GC376	minimal effects	minimal effects	2.1	1.8	minimal effects	minimal effects	–	–	–	–	–	–	–	–	–
CC(C)(C)[C@H](NC(=O)C(F)(F)F)C(=O)N1C[C@H]2[C@@H]([C@H]1C(=O)N[C@H](C#N)C[C@@H]1CCNC1=O)C2(C)C [nirmatrelvir]	–	–	–	–	–	–	retains sensitivity	–	–	–	–	–	–	–	–
CC(C)(C)NC(=O)N[C@H](C(=O)N1C[C@H]2[C@@H]([C@H]1C(=O)NC(CC1CCC1)C(=O)C(N)=O)C2(C)C)C(C)(C)C (stereo partly shown) [boceprevir]	slight resistance	hypersensitivity	–	–	slight resistance	hypersensitivity	–	4	increase in membrane-tethered cytosolic eGFP signal	approximately 10 fold	approximately 10 fold	slight resistance	slight resistance	increase in membrane-tethered cytosolic eGFP signal	4

Source: PMC9239272 (mBio, 2022)
